Values quoted from earlier work in publication PMC7922564, “Molecular Insights into an Antibiotic Enhancer Action of New Morpholine-Containing 5-Arylideneimidazolones in the Fight against MDR Bacteria” (International Journal of Molecular Sciences, 2021).
≈ marks a conversion by molar mass, not a printed value.

Experiments:
[1] = test system: S. aureus ATCC 25923; set-up: method as in earlier work; details: unstarred value; published previously; cited from earlier work
[2] = test system: S. aureus ATCC 25923; set-up: method as in earlier work; details: published previously, cited from earlier work
[3] = test system: K. aerogenes Ea-294, Ea-308; set-up: method as in earlier work; details: doxycycline, chloramphenicol, norfloxacin, already published, cited from earlier work
[4] = test system: K. aerogenes Ea-289; set-up: method as in earlier work; details: doxycycline, chloramphenicol, norfloxacin, already published, cited from earlier work
[5] = test system: K. aerogenes CM-64; set-up: method as in earlier work; details: doxycycline, chloramphenicol, norfloxacin, already published, cited from earlier work
[6] = test system: AcrAB-TolC efflux pump in K. aerogenes strain Ea-289; set-up: method as in PMID 30691112; details: compound 100 µM; previously described; cited from earlier work

With `NC1=N/C(=C\c2cccc(Oc3ccccc3)c2)C(=O)N1CCCN1CCOCC1` [Compound 16] as the compound, how does the MIC value [1] read?
Its MIC value is 0.125 mM (≈ 50.8 µg/mL).

And the “MIC reduction” value ([2]; oxacillin alone to oxacillin + compound)?
Its value is “No effect”.

What about the “A (activity gain)” value ([2]; oxacillin) of the same compound?
Its value is 1.

And the MIC reduction ([3]; erythromycin + compound)?
Its MIC reduction is “No effect”.

What about the “A (activity gain)” value ([3]; erythromycin) of the same compound?
Its value is 1.

And the MIC reduction ([4]; erythromycin + compound)?
Its MIC reduction is “No effect”.

And the “A (activity gain)” value ([4]; erythromycin)?
Its value is 1.

What about the MIC reduction ([5]; erythromycin + compound) of the same compound?
The MIC reduction was “No effect”.

What about the “A (activity gain)” value ([5]; erythromycin) of the same compound?
The value was 1.

And the “Inhibition efficiency (IE) towards extrusion of 1,2'-dNA” value [6]?
The value was 61%.
